# From patent US20260285850A1, “SUBSTITUTED OXAZOLIDINONES AND IMIDAZOLINONES AS HERBICIDES” (FMC CORPORATION, priority 2023, published 2026)
# Experiments:
# Assay type in all cases: in vivo
# kochia (Bassia scoparia) [1] = assay: Test A postemergence application, visual injury rating 0-100; settings: Postemergence
# Outline: (§1)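 Directed preemergence spray onto seeded soil or postemergence spray onto 2-10 cm plants (loam plus sand); compound carried in surfactant-containing non-phytotoxic solvent. Injury rated by eye after 10 d greenhouse growth; 0 = no effect, 100 = complete control.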
# [2] = tested on: galium (catchweed bedstraw, Galium aparine); assay: as above; settings: Postemergence
# Outline: as §1
# [3] = tested on: blackgrass (Alopecurus myosuroides); assay: as above; settings: Postemergence
# Outline: as §1
# [4] = tested on: palmer (palmer amaranth, palmer pigweed, Amaranthus palmeri); assay: as above; settings: Postemergence
# Outline: as §1
# [5] = tested on: ryegrass, Italian (italian ryegrass, Lolium multiflorum); assay: as above; settings: Postemergence
# Outline: as §1
# [6] = tested on: wheat (Triticum aestivum); assay: as above; settings: Postemergence
# Outline: as §1
# corn (Zea mays) [7] = assay: as above; settings: Postemergence
# Outline: as §1
# [8] = tested on: green foxtail (Setaria viridis); assay: as above; settings: Postemergence
# Outline: as §1
# [9] = tested on: horseweed (Erigeron canadensis); assay: as above; settings: Postemergence
# Outline: as §1
# [10] = tested on: oat, wild (wild oat, Avena fatua); assay: as above; settings: Postemergence
# Outline: as §1
# soybean (Glycine max) [11] = assay: as above; settings: Postemergence
# Outline: as §1
# [12] = tested on: ragweed (common ragweed, Ambrosia artemisiifolia); assay: as above; settings: Postemergence
# Outline: as §1
# [13] = tested on: barnyardgrass (Echinochloa crus-galli); assay: as above; settings: Postemergence
# Outline: as §1
# [14] = tested on: sedge, umbrella (small-flower umbrella sedge, Cyperus difformis); assay: Test B flooded paddy test, visual plant response rating 0-100; settings: 250 g ai/ha, Flood, applied to paddy water, evaluated after 13 days
# Outline: (§2)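 2-leaf plants; flood 3 cm over soil; compound dosed into paddy water; depth kept constant; greenhouse 13 d; visual scoring vs controls. Dash = no result.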
# [15] = tested on: barnyardgrass (Echinochloa crusgalli); assay: as above; settings: 250 g ai/ha, Flood, applied to paddy water, evaluated after 13 days
# Outline: as §2
# [16] = tested on: ducksalad (Heteranthera limosa); assay: as above; settings: 250 g ai/ha, Flood, applied to paddy water, evaluated after 13 days
# Outline: as §2
# rice (Oryza sativa) = assay: as above; settings: 250 g ai/ha, Flood, applied to paddy water, evaluated after 13 days
# Outline: as §2
# kochia (Bassia scoparia) [17] = assay: Test A preemergence soil spray, visual injury rating 0-100; settings: 10 days, 0 = no effect, 100 = complete control
# Outline: as §1
# [18] = tested on: blackgrass (Alopecurus myosuroides); assay: as above; settings: 10 days, 0 = no effect, 100 = complete control
# Outline: as §1
# [19] = tested on: palmer (palmer amaranth, palmer pigweed, Amaranthus palmeri); assay: as above; settings: 10 days, 0 = no effect, 100 = complete control
# Outline: as §1
# [20] = tested on: ryegrass, Italian (italian ryegrass, Lolium multiflorum); assay: as above; settings: 10 days, 0 = no effect, 100 = complete control
# Outline: as §1
# [21] = tested on: wheat (Triticum aestivum); assay: as above; settings: 10 days, 0 = no effect, 100 = complete control
# Outline: as §1
# corn (Zea mays) [22] = assay: as above; settings: 10 days, 0 = no effect, 100 = complete control
# Outline: as §1
# [23] = tested on: green foxtail (Setaria viridis); assay: as above; settings: 10 days, 0 = no effect, 100 = complete control
# Outline: as §1
# [24] = tested on: oat, wild (wild oat, Avena fatua); assay: as above; settings: 10 days, 0 = no effect, 100 = complete control
# Outline: as §1
# soybean (Glycine max) [25] = assay: as above; settings: 10 days, 0 = no effect, 100 = complete control
# Outline: as §1
# [26] = tested on: ragweed (common ragweed, Ambrosia artemisiifolia); assay: as above; settings: 10 days, 0 = no effect, 100 = complete control
# Outline: as §1
# [27] = tested on: barnyardgrass (Echinochloa crus-galli); assay: as above; settings: 10 days, 0 = no effect, 100 = complete control
# Outline: as §1
# [28] = 31 g ai/ha, greenhouse 10 days, 0 no effect, 100 complete control
# [29] = 125 g ai/ha, 10 days, 0 is no effect, 100 is complete control
structure (smiles),measurement,setting,value
CC(C)COC(=O)C1C=CC(NC(=O)C2(C)CN(c3cc(Cl)cc(Cl)c3)C(=O)O2)C1 (stereo not shown) [Compound 66],Kochia plant response rating (0 to 100 scale),kochia (Bassia scoparia) [1]; [28],70
same,Kochia plant response rating (0 to 100 scale),kochia (Bassia scoparia) [1]; [29],80
same,Galium plant response rating (0 to 100 scale),[2]; [28],70
same,Galium plant response rating (0 to 100 scale),[2]; [29],80
same,Blackgrass plant response rating (0 to 100 scale),[3]; [28],90
same,Blackgrass plant response rating (0 to 100 scale),[3]; [29],90
same,"Amaranth, Palmer / Pigweed, Palmer plant response rating (0 to 100 scale)",[4]; [28],90
same,"Amaranth, Palmer / Pigweed, Palmer plant response rating (0 to 100 scale)",[4]; [29],90
same,"Ryegrass, Italian plant response rating (0 to 100 scale)",[5]; [28],70
same,"Ryegrass, Italian plant response rating (0 to 100 scale)",[5]; [29],100
same,Wheat plant response rating (0 to 100 scale),[6]; [28],90
same,Wheat plant response rating (0 to 100 scale),[6]; [29],90
same,Corn plant response rating (0 to 100 scale),corn (Zea mays) [7]; [28],90
same,Corn plant response rating (0 to 100 scale),corn (Zea mays) [7]; [29],100
same,"Foxtail, Green plant response rating (0 to 100 scale)",[8]; [28],70
same,"Foxtail, Green plant response rating (0 to 100 scale)",[8]; [29],90
same,Horseweed plant response rating (0 to 100 scale),[9]; [28],40
same,Horseweed plant response rating (0 to 100 scale),[9]; [29],70
same,"Oat, Wild plant response rating (0 to 100 scale)",[10]; [28],90
same,"Oat, Wild plant response rating (0 to 100 scale)",[10]; [29],90
same,Soybean plant response rating (0 to 100 scale),soybean (Glycine max) [11]; [28],80
same,Soybean plant response rating (0 to 100 scale),soybean (Glycine max) [11]; [29],80
same,Ragweed plant response rating (0 to 100 scale),[12]; [28],70
same,Ragweed plant response rating (0 to 100 scale),[12]; [29],80
same,Barnyardgrass plant response rating (0 to 100 scale),[13]; [28],100
same,Barnyardgrass plant response rating (0 to 100 scale),[13]; [29],100
same,"Plant response rating, Sedge, Umbrella (0 to 100 scale, 0 is no effect and 100 is complete control)",[14],100
same,"Plant response rating, Barnyardgrass (0 to 100 scale, 0 is no effect and 100 is complete control)",[15],75
same,"Plant response rating, Ducksalad (0 to 100 scale, 0 is no effect and 100 is complete control)",[16],95
same,"Plant response rating, Rice (0 to 100 scale, 0 is no effect and 100 is complete control)",rice (Oryza sativa),15
same,Kochia plant response rating (0-100),kochia (Bassia scoparia) [17]; 31 g ai/ha,0
same,Kochia plant response rating (0 to 100 scale),kochia (Bassia scoparia) [17]; 125 g ai/ha,30
same,Blackgrass plant response rating (0-100),[18]; 31 g ai/ha,30
same,Blackgrass plant response rating (0 to 100 scale),[18]; 125 g ai/ha,80
same,"Amaranth, Palmer plant response rating (0-100)",[19]; 31 g ai/ha,90
same,"Amaranth, Palmer plant response rating (0 to 100 scale)",[19]; 125 g ai/ha,100
same,"Ryegrass, Italian plant response rating (0-100)",[20]; 31 g ai/ha,50
same,"Ryegrass, Italian plant response rating (0 to 100 scale)",[20]; 125 g ai/ha,90
same,Wheat plant response rating (0-100),[21]; 31 g ai/ha,10
same,Wheat plant response rating (0 to 100 scale),[21]; 125 g ai/ha,70
same,Corn plant response rating (0-100),corn (Zea mays) [22]; 31 g ai/ha,0
same,Corn plant response rating (0 to 100 scale),corn (Zea mays) [22]; 125 g ai/ha,60
same,"Foxtail, Green plant response rating (0-100)",[23]; 31 g ai/ha,20
same,"Foxtail, Green plant response rating (0 to 100 scale)",[23]; 125 g ai/ha,100
same,"Oat, Wild plant response rating (0-100)",[24]; 31 g ai/ha,0
same,"Oat, Wild plant response rating (0 to 100 scale)",[24]; 125 g ai/ha,90
same,Soybean plant response rating (0-100),soybean (Glycine max) [25]; 31 g ai/ha,0
same,Soybean plant response rating (0 to 100 scale),soybean (Glycine max) [25]; 125 g ai/ha,0
same,Ragweed plant response rating (0-100),[26]; 31 g ai/ha,0
same,Ragweed plant response rating (0 to 100 scale),[26]; 125 g ai/ha,70
same,Barnyardgrass plant response rating (0-100),[27]; 31 g ai/ha,50
same,Barnyardgrass plant response rating (0 to 100 scale),[27]; 125 g ai/ha,90
